In US8338424B2, “Guanidine-containing compounds useful as muscarinic receptor antagonists” (Theravance, Inc., priority 2007, dated 2012):

Columns and labels:
rats (Sprague-Dawley) [1] = test: Rat Einthoven assay (bronchoprotection against MCh); assay type: in vivo; conditions: for ID50 (potency): 1.5 hrs post-dose
Protocol: All test compounds are diluted in sterile water and are dosed via the inhalation route (IH). The rats (Sprague-Dawley, male, 250-350 g) are exposed to the aerosol generated from an LC Star Nebulizer Set and driven by a mixture of gases (5% CO2/95% atmospheric air). Each test compound solution is nebulized over a 10 minute time period in a pie shaped dosing chamber capable of holding six rats. At predetermined time points after inhalation of compound, the Einthoven assay is performed.
Thirty minutes prior to the start of pulmonary evaluation, the animals are anesthetized with inactin (thiobutabarbital, 120 mg/kg IP). The jugular vein is catheterized with saline filled polyethylene catheters (PE-50) and used to infuse MCh. The trachea is then dissected and cannulated with a 14G needle and used for rat ventilation during pulmonary evaluation. Once surgery is complete, rats are ventilated using a piston respirator set at a stroke volume of 1 ml/100 g body weight but not exceeding 2.5 ml volume, and at a rate of 90 strokes per minute.
The changes in pressure that occur with each breath are measured. Baseline values are collected for at least 2.5 minutes then rats are challenged non-cumulatively with 2-fold incremental increases of the bronchoconstrictor MCh (5, 10, 20, 40 and 80 μg/ml). The MCh is infused for 2.5 minutes from a syringe pump at a rate of 2 mL/kg/min. The animals are euthanized upon completion of the studies.
Changes in ventilation pressure (cm H20) in treated animals are expressed as % inhibition of MCh response relative to control animals.
Standard muscarinic antagonists were evaluated in the rat Einthoven assay 1.5 hrs post-dose.
Standards tiotropium and ipratropium were also evaluated 24 hr and/or 6 hr post-dose in the rat Einthoven assay. […] The observed loss of activity at this time point (6 hr) is consistent with its relatively short duration of action in the clinic.

rats (Sprague-Dawley) [2] = test: Rat antisialagogue assay (pilocarpine-induced salivation); assay type: in vivo; conditions: evaluated at 1, 6, and 24 hr post-dose
Protocol: Rats (Sprague-Dawley, male, 250-350 g) are dosed, anesthetized and cannulated as described for Assay 3. At predetermined time points and after surgery, animals are placed on their dorsal side at a 20° incline with their head in a downward slope. A pre-weighed gauze pad is inserted in the animal's mouth and the muscarinic agonist pilocarpine (PILO) (3 mg/kg, iv.) is administered. Saliva produced during 10 minutes post-PILO is measured gravimetrically by determining the weight of the gauze pad before and after PILO. Antisialagogue effects are expressed as % inhibition of salivation relative to control animals.
The rat antisialagogue assay was developed to assess systemic exposure and calculate the lung selectivity index (LSI) of test compounds. The standard, tiotropium, was evaluated in this model at 1, 6, and 24 hr post-dose. […] This finding is consistent with the peak effects observed in the Einthoven assay.
This model is a modified version of the procedure described in Rechter, “Estimation of anticholinergic drug effects in mice by antagonism against pilocarpine-induced salivation” Ata Pharmacol Toxicol 24:243-254 (1996). The mean weight of saliva in vehicle-treated animals, at each pre-treatment time, is calculated and used to compute % inhibition of salivation, at the corresponding pre-treatment time, at each dose.

C[N+]1(C)CCC(OC(=O)C(O)(c2ccccc2)C2CCCC2)C1 (centres unmarked) [glycopyrrolate]
ID50 (potency) (rats (Sprague-Dawley) [1]; inhalation): 15 µg/mL

CC(C)[N+]1(C)[C@@H]2CC[C@H]1C[C@@H](OC(=O)C(CO)c1ccccc1)C2 (some centres unmarked) [ipratropium]
fold less potent 6-hr post-dose compared to 1.5 hr potency (rats (Sprague-Dawley) [1]; 6-hr post-dose, 10 and 30 μg/ml): about 3 fold | ID50 (potency) (rats (Sprague-Dawley) [1]; inhalation): 4.4 µg/mL

C[N+]1(C)[C@@H]2C[C@@H](OC(=O)C(O)(c3cccs3)c3cccs3)C[C@H]1[C@@H]1O[C@@H]12 [tiotropium]
time post dose at which most potent at inhibiting pilocarpine-induced salivation (rats (Sprague-Dawley) [2]): 6 h | ID50 (potency) (rats (Sprague-Dawley) [1]; inhalation): 6 µg/mL | 6 hr versus 24 hr potency values (rats (Sprague-Dawley) [1]; 6 hr and 24 hr post-dose): not significantly different from each other | fold more potent at 6 hr and 24 hr compared to 1.5 hr potency (rats (Sprague-Dawley) [1]; 6 hr and 24 hr post-dose): about 2 fold | time of peak bronchoprotection post-dose (rats (Sprague-Dawley) [1]; inhalation): 6 h
